From PubChem BioAssay AID248 (DTP/NCI, 2004)
Inconclusive results and toxic doses are left out. Rule as the data show it: active = T/C of 150% or more; inactive = T/C below 125%.

Test system: L1210 leukemia ip in BDF1 mice, survival T/C
Experiment: NCI In Vivo Anticancer Drug Screen. Data for tumor model L1210 Leukemia (intraperitoneal) in B6D2F1 (BDF1) mice
Conditions: endpoint: mean survival time, higher = longer survival
In short: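 Value reflects the ratio of survival in compound-treated mice to survival in vehicle-treated controls, with both groups carrying the same transplanted tumor.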

[1] = dose: 100.0 mg/kg/injection, schedule: Q01DX009 (ip), vehicle: Klucel (hydroxypropylcellulose) (HPC)
[2] = dose: 100.0 mg/kg/injection, schedule: Q04DX003 (ip), vehicle: Klucel (hydroxypropylcellulose) (HPC)
[3] = dose: 200.0 mg/kg/injection, schedule: Q01DX009 (ip), vehicle: Klucel (hydroxypropylcellulose) (HPC)
[4] = dose: 200.0 mg/kg/injection, schedule: Q04DX003 (ip), vehicle: Klucel (hydroxypropylcellulose) (HPC)
[5] = dose: 400.0 mg/kg/injection, schedule: Q01DX009 (ip), vehicle: Klucel (hydroxypropylcellulose) (HPC)
[6] = dose: 400.0 mg/kg/injection, schedule: Q04DX003 (ip), vehicle: Klucel (hydroxypropylcellulose) (HPC)
[7] = dose: 100.0 mg/kg/injection, schedule: Q01DX009 (ip), vehicle: saline
[8] = dose: 200.0 mg/kg/injection, schedule: Q01DX009 (ip), vehicle: saline
[9] = dose: 400.0 mg/kg/injection, schedule: Q01DX009 (ip), vehicle: saline
[10] = dose: 100.0 mg/kg/injection, schedule: Q04DX003 (ip), vehicle: saline with Tween-80
[11] = dose: 200.0 mg/kg/injection, schedule: Q04DX003 (ip), vehicle: saline with Tween-80
[12] = dose: 400.0 mg/kg/injection, schedule: Q04DX003 (ip), vehicle: saline with Tween-80
[13] = dose: 100.0 mg/kg/injection, schedule: Q01DX001 (ip), vehicle: carboxymethylcellulose (CMC)
[14] = dose: 200.0 mg/kg/injection, schedule: Q01DX001 (ip), vehicle: carboxymethylcellulose (CMC)
[15] = dose: 400.0 mg/kg/injection, schedule: Q01DX001 (ip), vehicle: carboxymethylcellulose (CMC)
[16] = dose: 100.0 mg/kg/injection, schedule: Q01DX001 (ip), vehicle: saline
[17] = dose: 200.0 mg/kg/injection, schedule: Q01DX001 (ip), vehicle: saline
[18] = dose: 400.0 mg/kg/injection, schedule: Q01DX001 (ip), vehicle: saline
[19] = dose: 100.0 mg/kg/injection, schedule: Q01DX001 (ip), vehicle: Klucel (hydroxypropylcellulose) (HPC)
[20] = dose: 200.0 mg/kg/injection, schedule: Q01DX001 (ip), vehicle: Klucel (hydroxypropylcellulose) (HPC)
[21] = dose: 400.0 mg/kg/injection, schedule: Q01DX001 (ip), vehicle: Klucel (hydroxypropylcellulose) (HPC)
[22] = dose: 100.0 mg/kg/injection, schedule: Q01DX001 (ip), vehicle: saline with Tween-80
[23] = dose: 200.0 mg/kg/injection, schedule: Q01DX001 (ip), vehicle: saline with Tween-80
[24] = dose: 25.0 mg/kg/injection, schedule: Q01DX009 (ip), vehicle: saline with Tween-80
[25] = dose: 100.0 mg/kg/injection, schedule: Q04DX003 (ip), vehicle: saline
[26] = dose: 50.0 mg/kg/injection, schedule: Q01DX009 (ip), vehicle: saline with Tween-80
[27] = dose: 100.0 mg/kg/injection, schedule: Q01DX009 (ip), vehicle: saline with Tween-80
[28] = dose: 50.0 mg/kg/injection, schedule: Q01DX001 (ip), vehicle: carboxymethylcellulose (CMC)

Measured: T/C

Cc1cc(C)c(C(=O)/C=C/c2ccccc2)c(C)c1
inactive: [1] 91 % of control | [2] 104 % of control | [3] 94 % of control | [4] 101 % of control | [5] 94 % of control | [6] 95 % of control

COC(=O)C1C2OC(C3OC32)C1C(=O)OC (centres undefined)
inactive: [7] 103 % of control | [8] 104 % of control | [9] 95 % of control

CC(C)OC(=S)SCC(=O)O
inactive: [10] 97 % of control | [11] 93 % of control | [12] 93 % of control

COc1ccc(Oc2cc(OC)ccc2Oc2ccccc2)cc1
inactive: [13] 97 % of control | [14] 105 % of control | [15] 110 % of control

O=S(=O)(Nc1ccccc1F)c1cc(Cl)c(Cl)cc1Cl
inactive: [7] 96 % of control | [8] 96 % of control | [9] 94 % of control

O=C(c1ccccc1)c1ccc(O)c2ncccc12
inactive: dose: 100.0 mg/kg/injection, schedule: Q04DX002 (ip), vehicle: Klucel (hydroxypropylcellulose) (HPC) 102 % of control | dose: 200.0 mg/kg/injection, schedule: Q04DX002 (ip), vehicle: Klucel (hydroxypropylcellulose) (HPC) 102 % of control | dose: 400.0 mg/kg/injection, schedule: Q04DX002 (ip), vehicle: Klucel (hydroxypropylcellulose) (HPC) 98 % of control

O=[N+]([O-])c1ccccc1N=Nc1c(O)[nH]c2ccc(Br)cc12
inactive: [16] 98 % of control | [17] 101 % of control | [18] 113 % of control

Cc1ccc2c(ccc3ccccc32)n1
inactive: [2] 97 % of control | [4] 90 % of control | [6] 90 % of control

Cc1ccc2c(ccc(/C=C\c3cc(C)c4cccnc4c3O)[n+]2C)c1
inactive: [13] 114 % of control

CCCC(N)C(O)c1ccccc1 (centres undefined)
inactive: dose: 75.0 mg/kg/injection, schedule: Q01DX001 (ip), vehicle: saline 102 % of control | dose: 150.0 mg/kg/injection, schedule: Q01DX001 (ip), vehicle: saline 100 % of control

CCN(CC)C(C)=O
inactive: dose: 50.0 mg/kg/injection, schedule: Q01DX001 (ip), vehicle: saline 87 % of control | [17] 86 % of control | [18] 86 % of control

COc1ccc2c(c1OC)C1(CCN(C)C#N)CCCCC1CC2 (centres undefined)
inactive: [19] 95 % of control | [20] 95 % of control | [21] 86 % of control

CCCCCC(=O)OC1(C(C)=O)CCC2C3CCC4=CC(=O)CCC4C3CCC21C (centres undefined)
inactive: dose: 12.5 mg/kg/injection, schedule: Q04DX002 (ip), vehicle: Klucel (hydroxypropylcellulose) (HPC) 94 % of control | dose: 25.0 mg/kg/injection, schedule: Q04DX002 (ip), vehicle: Klucel (hydroxypropylcellulose) (HPC) 90 % of control | dose: 50.0 mg/kg/injection, schedule: Q04DX002 (ip), vehicle: Klucel (hydroxypropylcellulose) (HPC) 94 % of control

C1CCC2=NCCCN2CC1
inactive: dose: 5.0 mg/kg/injection, schedule: Q01DX001 (ip), vehicle: saline 101 % of control | dose: 10.0 mg/kg/injection, schedule: Q01DX001 (ip), vehicle: saline 101 % of control | dose: 20.0 mg/kg/injection, schedule: Q01DX001 (ip), vehicle: saline 103 % of control | dose: 40.0 mg/kg/injection, schedule: Q01DX001 (ip), vehicle: saline 97 % of control

C=CCC(CC)C(=O)NC(=O)N1CCCc2ccccc21 (centres undefined)
inactive: [22] 91 % of control | [23] 86 % of control

CCOC(=O)NC(=S)[S][Sb]([S]C(=S)NC(=O)OCC)[S]c1nc2ccc(N=Nc3ccc(NS(=O)(=O)c4ccc(NC(=O)C(Cl)Cl)cc4)cc3)cc2s1
inactive: dose: 100.0 mg/kg/injection, schedule: Q01DX001 (ip), vehicle: steriod suspending solution 95 % of control | dose: 200.0 mg/kg/injection, schedule: Q01DX001 (ip), vehicle: steriod suspending solution 105 % of control | dose: 400.0 mg/kg/injection, schedule: Q01DX001 (ip), vehicle: steriod suspending solution 92 % of control

Cc1ccc(-c2cc3ccccc3[nH]2)cc1
inactive: dose: 50.0 mg/kg/injection, schedule: Q01DX009 (ip), vehicle: Klucel (hydroxypropylcellulose) (HPC) 94 % of control | [1] 89 % of control | [2] 91 % of control | [3] 86 % of control | [4] 90 % of control

O=C(NCCCl)NC1c2cc(Cl)ccc2-c2c(Cl)cc(Cl)cc21 (centres undefined)
inactive: [19] 92 % of control | [1] 87 % of control | [2] 94 % of control | [20] 96 % of control | [3] 90 % of control | [4] 98 % of control | [21] 92 % of control | [5] 95 % of control | [6] 98 % of control

Cc1cc(I)c(C)s1
inactive: [10] 96 % of control | [11] 96 % of control | [12] 98 % of control

Nc1cccc(/C=C/c2ccncc2)c1
inactive: [1] 97 % of control | [3] 94 % of control | [5] 95 % of control

CCCCCCCCCCCCNC(=O)Nc1ccc(Cl)c(Cl)c1
inactive: [16] 92 % of control | [17] 93 % of control

CCCCN(C)CC#N
inactive: dose: 6.25 mg/kg/injection, schedule: Q01DX009 (ip), vehicle: saline with Tween-80 102 % of control | dose: 12.5 mg/kg/injection, schedule: Q01DX009 (ip), vehicle: saline with Tween-80 96 % of control | dose: 12.5 mg/kg/injection, schedule: Q04DX003 (ip), vehicle: saline with Tween-80 94 % of control | [24] 104 % of control | dose: 25.0 mg/kg/injection, schedule: Q04DX003 (ip), vehicle: saline with Tween-80 94 % of control

Cc1cc(=O)[nH]c2c(O)ccc([N+](=O)[O-])c12
inactive: [25] 103 % of control | dose: 200.0 mg/kg/injection, schedule: Q04DX003 (ip), vehicle: saline 103 % of control | dose: 400.0 mg/kg/injection, schedule: Q04DX003 (ip), vehicle: saline 103 % of control

CC(=O)C1CCC2C3CCC4=CC(=O)CC4(C)C3CCC12C (centres undefined)
inactive: [26] 113 % of control | [27] 105 % of control | dose: 200.0 mg/kg/injection, schedule: Q01DX009 (ip), vehicle: saline with Tween-80 90 % of control

CCOC(=O)OCc1ccccc1
inactive: dose: 100.0 mg/kg/injection, schedule: Q04DX002 (ip), vehicle: saline with Tween-80 94 % of control | dose: 200.0 mg/kg/injection, schedule: Q04DX002 (ip), vehicle: saline with Tween-80 109 % of control | dose: 400.0 mg/kg/injection, schedule: Q04DX002 (ip), vehicle: saline with Tween-80 102 % of control

S=c1sc2ccccc2n1CCNc1ccccc1
inactive: [28] 96 % of control | [13] 100 % of control | [14] 100 % of control | [15] 89 % of control

COC(=O)c1cc(C)cc(NS(=O)(=O)c2ccc(C)cc2)c1C
inactive: [28] 89 % of control | [13] 86 % of control | [14] 94 % of control | [15] 89 % of control

CC(=O)Nc1cc(C)c(C=O)cc1C
inactive: [13] 88 % of control | [14] 108 % of control | [15] 92 % of control

CC1(C)CC2(OC2c2cccc([N+](=O)[O-])c2)C(=O)c2ccccc21 (centres undefined)
inactive: [19] 90 % of control | [20] 95 % of control | [21] 92 % of control

O=[N+]([O-])c1ccc(N=Nc2c(Cl)cc(O)cc2Cl)cc1
inactive: [24] 96 % of control | [26] 89 % of control | [27] 89 % of control

CCOC(=O)c1ccc(NCc2nnc3nc(N)nc(SCc4ccccc4)c3n2)cc1
inactive: [22] 96 % of control | [23] 98 % of control | dose: 400.0 mg/kg/injection, schedule: Q01DX001 (ip), vehicle: saline with Tween-80 92 % of control

CCCC[N+](CC)(CC)CCOC(=O)C1C2CC3OC(=O)C1C3C2 (centres undefined)
inactive: [25] 101 % of control

CSCSCC(CO)NCc1ccccc1 (centres undefined)
inactive: dose: 50.0 mg/kg/injection, schedule: Q01DX009 (ip), vehicle: saline 110 % of control | [16] 97 % of control | [7] 104 % of control | [17] 100 % of control
